Test results taken from the supplement of paper PMC4862054.
Several values for one entry are separate records, joined by “and”; a condition that tells them apart may be missing. Identical values can stand only once.

Tested on: HCC1599
Test: normalised viability (% of control), CellTiter-Blue; higher = more viable cells (about 100 = DMSO control)
Details: 10000 nM; incubation time: 72 h
In short: (§1)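 Breast cancer cell lines in 20 µl suspension were seeded onto 384-well plates pre-loaded with compound dissolved in 5 µl medium, then incubated 72 h. CellTiter-Blue reagent (2.5 µl) was added for 2 h at 37 °C and fluorescence read at 560/590 nm. Each plate was normalised to vehicle (100) and a positive kill control (0), with Z'-factor quality control. The value is normalised viability at one listed concentration of the series.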

SMILES | normalised viability [%]
COc1cc2nccc(Oc3ccc(NC(=O)Nc4cc(C)on4)c(Cl)c3)c2cc1OC [Tivozanib] | 79
O=C(Cc1ccc(-c2ccc(OCCN3CCOCC3)cc2)cn1)NCc1ccccc1 [KX2-391] | 58.7
Nc1ccccc1NC(=O)c1ccc(CNC(=O)OCc2cccnc2)cc1 [Entinostat] | 19.6
C=CC(=O)Nc1cc2c(Nc3ccc(F)c(Cl)c3)ncnc2cc1OCCCN1CCOCC1 [Canertinib] | 43.9
CC[C@H](Nc1ncnc2[nH]cnc12)c1nc2cccc(F)c2c(=O)n1-c1ccccc1 [CAL-101] | 49.1

Tested on: HCC1937
Test: as above
Details: 0.25 nM; incubation time: 72 h
In short: as §1

SMILES | normalised viability [%]
CC(=O)Nc1cccc(-n2c(=O)n(C3CC3)c(=O)c3c(Nc4ccc(I)cc4F)n(C)c(=O)c(C)c32)c1 | 132

Same assay, conditions: 0.99 nM; incubation time: 72 h

SMILES | normalised viability [%]
CCN(CC)CCCC(C)Nc1c2ccc(Cl)cc2nc2ccc(OC)cc12 (stereo not given) [Mepacrine] | 118

Same assay, conditions: 1 nM; incubation time: 72 h

SMILES | normalised viability [%]
O=C(/C=C/c1cccnc1)NCCCCC1CCN(C(=O)c2ccccc2)CC1 [FK-866] | 93.3
CC[C@@H]1C(=O)N(C)c2cnc(Nc3ccc(C(=O)NC4CCN(C)CC4)cc3OC)nc2N1C1CCCC1 [BI 2536] | 107

Same assay, conditions: 10 nM; incubation time: 72 h

SMILES | normalised viability
Nc1ncn([C@H]2C[C@H](O)[C@@H](CO)O2)c(=O)n1 [Decitabine] | 120% and 99%
CCN(CC)CCCC(C)Nc1c2ccc(Cl)cc2nc2ccc(OC)cc12 (stereo not given) [Mepacrine] | 108%
Nc1nc2[nH]cc(CCc3ccc(C(=O)N[C@@H](CCC(=O)O)C(=O)O)cc3)c2c(=O)[nH]1 [Pemetrexed] | 89%
COc1cc([C@@H]2c3cc4c(cc3[C@@H](O[C@@H]3O[C@@H]5CO[C@@H](c6cccs6)O[C@H]5[C@H](O)[C@H]3O)[C@H]3COC(=O)[C@H]23)OCO4)cc(OC)c1O [Teniposide] | 82.3%
COc1cc2nccc(Oc3ccc(NC(=O)Nc4cc(C)on4)c(Cl)c3)c2cc1OC [Tivozanib] | 127%
O=C(Cc1ccc(-c2ccc(OCCN3CCOCC3)cc2)cn1)NCc1ccccc1 [KX2-391] | 108%
Nc1ccccc1NC(=O)c1ccc(CNC(=O)OCc2cccnc2)cc1 [Entinostat] | 124%
C=CC(=O)Nc1cc2c(Nc3ccc(F)c(Cl)c3)ncnc2cc1OCCCN1CCOCC1 [Canertinib] | 62.8%
CC[C@H](Nc1ncnc2[nH]cnc12)c1nc2cccc(F)c2c(=O)n1-c1ccccc1 [CAL-101] | 106%

Same assay, conditions: 25 nM; incubation time: 72 h

SMILES | normalised viability [%]
CC(=O)Nc1cccc(-n2c(=O)n(C3CC3)c(=O)c3c(Nc4ccc(I)cc4F)n(C)c(=O)c(C)c32)c1 | 112

Same assay, conditions: 99 nM; incubation time: 72 h

SMILES | normalised viability [%]
CCN(CC)CCCC(C)Nc1c2ccc(Cl)cc2nc2ccc(OC)cc12 (stereo not given) [Mepacrine] | 78.7

Same assay, conditions: 100 nM; incubation time: 72 h

SMILES | normalised viability [%]
O=C(/C=C/c1cccnc1)NCCCCC1CCN(C(=O)c2ccccc2)CC1 [FK-866] | 64.2
CC[C@@H]1C(=O)N(C)c2cnc(Nc3ccc(C(=O)NC4CCN(C)CC4)cc3OC)nc2N1C1CCCC1 [BI 2536] | 24

Same assay, conditions: 250 nM; incubation time: 72 h

SMILES | normalised viability [%]
CC(=O)Nc1cccc(-n2c(=O)n(C3CC3)c(=O)c3c(Nc4ccc(I)cc4F)n(C)c(=O)c(C)c32)c1 | 89.2

Same assay, conditions: 990 nM; incubation time: 72 h

SMILES | normalised viability [%]
CCN(CC)CCCC(C)Nc1c2ccc(Cl)cc2nc2ccc(OC)cc12 (stereo not given) [Mepacrine] | 15.8

Same assay, conditions: 1000 nM; incubation time: 72 h

SMILES | normalised viability
Nc1ncn([C@H]2C[C@H](O)[C@@H](CO)O2)c(=O)n1 [Decitabine] | 77.2% and 76.6%
O=C(/C=C/c1cccnc1)NCCCCC1CCN(C(=O)c2ccccc2)CC1 [FK-866] | 42.5%
CC[C@@H]1C(=O)N(C)c2cnc(Nc3ccc(C(=O)NC4CCN(C)CC4)cc3OC)nc2N1C1CCCC1 [BI 2536] | 28.3%
CCN(CC)CCCC(C)Nc1c2ccc(Cl)cc2nc2ccc(OC)cc12 (stereo not given) [Mepacrine] | 63.6%
Nc1nc2[nH]cc(CCc3ccc(C(=O)N[C@@H](CCC(=O)O)C(=O)O)cc3)c2c(=O)[nH]1 [Pemetrexed] | 93.4%
COc1cc([C@@H]2c3cc4c(cc3[C@@H](O[C@@H]3O[C@@H]5CO[C@@H](c6cccs6)O[C@H]5[C@H](O)[C@H]3O)[C@H]3COC(=O)[C@H]23)OCO4)cc(OC)c1O [Teniposide] | 21%
COc1cc2nccc(Oc3ccc(NC(=O)Nc4cc(C)on4)c(Cl)c3)c2cc1OC [Tivozanib] | 88.2%
O=C(Cc1ccc(-c2ccc(OCCN3CCOCC3)cc2)cn1)NCc1ccccc1 [KX2-391] | 16.9%
Nc1ccccc1NC(=O)c1ccc(CNC(=O)OCc2cccnc2)cc1 [Entinostat] | 82.4%
C=CC(=O)Nc1cc2c(Nc3ccc(F)c(Cl)c3)ncnc2cc1OCCCN1CCOCC1 [Canertinib] | 73.1%
CC[C@H](Nc1ncnc2[nH]cnc12)c1nc2cccc(F)c2c(=O)n1-c1ccccc1 [CAL-101] | 94.5%

Same assay, conditions: 10000 nM; incubation time: 72 h

SMILES | normalised viability
Nc1ncn([C@H]2C[C@H](O)[C@@H](CO)O2)c(=O)n1 [Decitabine] | 69.2% and 62.8%
CCN(CC)CCCC(C)Nc1c2ccc(Cl)cc2nc2ccc(OC)cc12 (stereo not given) [Mepacrine] | 10.7%
Nc1nc2[nH]cc(CCc3ccc(C(=O)N[C@@H](CCC(=O)O)C(=O)O)cc3)c2c(=O)[nH]1 [Pemetrexed] | 85.5%
COc1cc([C@@H]2c3cc4c(cc3[C@@H](O[C@@H]3O[C@@H]5CO[C@@H](c6cccs6)O[C@H]5[C@H](O)[C@H]3O)[C@H]3COC(=O)[C@H]23)OCO4)cc(OC)c1O [Teniposide] | 18.8%
COc1cc2nccc(Oc3ccc(NC(=O)Nc4cc(C)on4)c(Cl)c3)c2cc1OC [Tivozanib] | 63%
O=C(Cc1ccc(-c2ccc(OCCN3CCOCC3)cc2)cn1)NCc1ccccc1 [KX2-391] | 15.9%
Nc1ccccc1NC(=O)c1ccc(CNC(=O)OCc2cccnc2)cc1 [Entinostat] | 56.8%
C=CC(=O)Nc1cc2c(Nc3ccc(F)c(Cl)c3)ncnc2cc1OCCCN1CCOCC1 [Canertinib] | 13.6%
CC[C@H](Nc1ncnc2[nH]cnc12)c1nc2cccc(F)c2c(=O)n1-c1ccccc1 [CAL-101] | 92.4%

Tested on: HDQ-P1
Test: as above
Details: 0.075 nM; incubation time: 72 h
In short: as §1

SMILES | normalised viability [%]
CC(=O)Nc1cccc(-n2c(=O)n(C3CC3)c(=O)c3c(Nc4ccc(I)cc4F)n(C)c(=O)c(C)c32)c1 | 112

Same assay, conditions: 0.297 nM; incubation time: 72 h

SMILES | normalised viability [%]
CCN(CC)CCCC(C)Nc1c2ccc(Cl)cc2nc2ccc(OC)cc12 (stereo not given) [Mepacrine] | 113

Same assay, conditions: 0.3 nM; incubation time: 72 h

SMILES | normalised viability [%]
O=C(/C=C/c1cccnc1)NCCCCC1CCN(C(=O)c2ccccc2)CC1 [FK-866] | 109
CC[C@@H]1C(=O)N(C)c2cnc(Nc3ccc(C(=O)NC4CCN(C)CC4)cc3OC)nc2N1C1CCCC1 [BI 2536] | 126

Same assay, conditions: 0.75 nM; incubation time: 72 h

SMILES | normalised viability [%]
CC(=O)Nc1cccc(-n2c(=O)n(C3CC3)c(=O)c3c(Nc4ccc(I)cc4F)n(C)c(=O)c(C)c32)c1 | 98.3

Same assay, conditions: 2.5 nM; incubation time: 72 h

SMILES | normalised viability [%]
CC(=O)Nc1cccc(-n2c(=O)n(C3CC3)c(=O)c3c(Nc4ccc(I)cc4F)n(C)c(=O)c(C)c32)c1 | 99.3
